According to PMC10983004 (Journal of Medicinal Chemistry, 2024):

Assays:
KDM4B [1] = molecular target: T1, KDM4B (Homo sapiens, UniProt O94953); conditions: read-out: IC50 KDM4B; [2OG] 20 µM; ref SI 8 (main 64); cited from earlier work
T1 sequence (O94953 1-1096): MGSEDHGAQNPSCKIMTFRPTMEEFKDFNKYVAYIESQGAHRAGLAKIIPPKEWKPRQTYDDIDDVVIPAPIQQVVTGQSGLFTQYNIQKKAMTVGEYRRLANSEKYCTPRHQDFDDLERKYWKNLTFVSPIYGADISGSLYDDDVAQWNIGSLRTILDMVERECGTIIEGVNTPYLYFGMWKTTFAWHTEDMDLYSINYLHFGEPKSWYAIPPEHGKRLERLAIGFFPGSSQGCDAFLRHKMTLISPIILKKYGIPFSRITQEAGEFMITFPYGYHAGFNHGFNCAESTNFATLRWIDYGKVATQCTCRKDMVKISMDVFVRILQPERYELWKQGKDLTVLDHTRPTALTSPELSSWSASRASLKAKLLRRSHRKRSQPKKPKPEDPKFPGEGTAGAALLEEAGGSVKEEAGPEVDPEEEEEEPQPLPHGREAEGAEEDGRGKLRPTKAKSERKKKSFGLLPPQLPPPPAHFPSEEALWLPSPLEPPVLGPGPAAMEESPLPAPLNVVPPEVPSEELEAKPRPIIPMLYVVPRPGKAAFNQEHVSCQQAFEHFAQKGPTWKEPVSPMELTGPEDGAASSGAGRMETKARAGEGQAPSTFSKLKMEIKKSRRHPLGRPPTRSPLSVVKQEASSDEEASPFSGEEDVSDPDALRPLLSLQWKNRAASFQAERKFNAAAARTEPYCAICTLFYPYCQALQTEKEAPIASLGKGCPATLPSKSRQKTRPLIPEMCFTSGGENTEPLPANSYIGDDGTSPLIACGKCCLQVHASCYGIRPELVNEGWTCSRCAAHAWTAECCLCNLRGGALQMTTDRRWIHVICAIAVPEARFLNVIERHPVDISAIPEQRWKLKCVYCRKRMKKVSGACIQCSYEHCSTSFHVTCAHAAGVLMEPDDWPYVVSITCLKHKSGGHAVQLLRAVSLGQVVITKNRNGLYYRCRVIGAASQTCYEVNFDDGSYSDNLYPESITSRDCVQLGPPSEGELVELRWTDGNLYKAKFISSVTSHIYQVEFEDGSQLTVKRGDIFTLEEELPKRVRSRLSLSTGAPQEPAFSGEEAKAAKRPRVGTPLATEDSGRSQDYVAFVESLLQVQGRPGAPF

PHD1, PHD2, PHD3 = conditions: RCC4/VHLHA, Hep3B, MCF7; western blot; ref SI 4; cited from earlier work
PHD3 = conditions: ref SI 6 (main 76); cited from earlier work
KDM6A [2] = molecular target: T2, KDM6A (Homo sapiens, UniProt O15550); conditions: read-out: IC50 KDM6A; [2OG] […]; ref SI 8 (main 64); cited from earlier work
T2 sequence (O15550 whole entry): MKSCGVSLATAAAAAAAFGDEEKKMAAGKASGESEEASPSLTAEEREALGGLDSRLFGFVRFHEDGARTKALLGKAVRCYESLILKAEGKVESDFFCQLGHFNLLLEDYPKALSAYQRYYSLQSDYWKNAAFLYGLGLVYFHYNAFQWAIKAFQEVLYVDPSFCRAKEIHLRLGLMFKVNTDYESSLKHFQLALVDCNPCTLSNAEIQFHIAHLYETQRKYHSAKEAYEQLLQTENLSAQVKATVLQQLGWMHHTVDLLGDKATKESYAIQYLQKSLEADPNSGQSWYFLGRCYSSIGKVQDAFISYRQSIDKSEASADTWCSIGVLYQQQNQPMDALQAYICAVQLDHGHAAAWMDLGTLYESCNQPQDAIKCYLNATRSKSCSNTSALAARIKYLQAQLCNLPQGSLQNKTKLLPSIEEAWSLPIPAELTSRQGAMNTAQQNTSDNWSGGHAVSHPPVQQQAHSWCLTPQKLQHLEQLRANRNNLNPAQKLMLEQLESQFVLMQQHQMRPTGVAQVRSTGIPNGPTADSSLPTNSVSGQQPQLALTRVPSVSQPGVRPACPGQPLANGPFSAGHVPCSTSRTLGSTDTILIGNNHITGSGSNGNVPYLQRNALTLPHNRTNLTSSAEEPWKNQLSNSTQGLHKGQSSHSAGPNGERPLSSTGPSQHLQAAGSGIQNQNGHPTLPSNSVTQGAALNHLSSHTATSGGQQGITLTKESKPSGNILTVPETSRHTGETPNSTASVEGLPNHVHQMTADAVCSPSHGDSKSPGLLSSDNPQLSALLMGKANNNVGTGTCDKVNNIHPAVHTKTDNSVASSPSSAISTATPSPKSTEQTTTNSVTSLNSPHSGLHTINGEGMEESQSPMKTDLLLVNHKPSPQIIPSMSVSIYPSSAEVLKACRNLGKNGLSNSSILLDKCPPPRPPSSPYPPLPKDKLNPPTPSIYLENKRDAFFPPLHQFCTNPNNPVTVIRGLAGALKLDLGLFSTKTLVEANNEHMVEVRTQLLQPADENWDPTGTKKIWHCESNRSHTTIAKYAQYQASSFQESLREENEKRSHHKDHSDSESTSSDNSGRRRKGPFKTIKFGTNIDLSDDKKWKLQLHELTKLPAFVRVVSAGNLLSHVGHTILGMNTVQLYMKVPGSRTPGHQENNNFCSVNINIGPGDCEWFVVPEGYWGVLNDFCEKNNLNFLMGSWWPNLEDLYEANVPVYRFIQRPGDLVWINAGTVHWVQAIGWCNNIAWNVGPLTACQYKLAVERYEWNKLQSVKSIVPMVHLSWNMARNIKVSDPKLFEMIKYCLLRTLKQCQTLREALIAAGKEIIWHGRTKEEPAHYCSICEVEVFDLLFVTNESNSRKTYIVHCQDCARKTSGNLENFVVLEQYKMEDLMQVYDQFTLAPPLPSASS

KDM2A = molecular target: T3, KDM2A (Homo sapiens, UniProt Q9Y2K7); conditions: read-out: Ki (calculated) KDM2A; Cheng-Prussoff from reported IC50; ref 75 (SI ref 4)
T3 sequence (Q9Y2K7 1-1162): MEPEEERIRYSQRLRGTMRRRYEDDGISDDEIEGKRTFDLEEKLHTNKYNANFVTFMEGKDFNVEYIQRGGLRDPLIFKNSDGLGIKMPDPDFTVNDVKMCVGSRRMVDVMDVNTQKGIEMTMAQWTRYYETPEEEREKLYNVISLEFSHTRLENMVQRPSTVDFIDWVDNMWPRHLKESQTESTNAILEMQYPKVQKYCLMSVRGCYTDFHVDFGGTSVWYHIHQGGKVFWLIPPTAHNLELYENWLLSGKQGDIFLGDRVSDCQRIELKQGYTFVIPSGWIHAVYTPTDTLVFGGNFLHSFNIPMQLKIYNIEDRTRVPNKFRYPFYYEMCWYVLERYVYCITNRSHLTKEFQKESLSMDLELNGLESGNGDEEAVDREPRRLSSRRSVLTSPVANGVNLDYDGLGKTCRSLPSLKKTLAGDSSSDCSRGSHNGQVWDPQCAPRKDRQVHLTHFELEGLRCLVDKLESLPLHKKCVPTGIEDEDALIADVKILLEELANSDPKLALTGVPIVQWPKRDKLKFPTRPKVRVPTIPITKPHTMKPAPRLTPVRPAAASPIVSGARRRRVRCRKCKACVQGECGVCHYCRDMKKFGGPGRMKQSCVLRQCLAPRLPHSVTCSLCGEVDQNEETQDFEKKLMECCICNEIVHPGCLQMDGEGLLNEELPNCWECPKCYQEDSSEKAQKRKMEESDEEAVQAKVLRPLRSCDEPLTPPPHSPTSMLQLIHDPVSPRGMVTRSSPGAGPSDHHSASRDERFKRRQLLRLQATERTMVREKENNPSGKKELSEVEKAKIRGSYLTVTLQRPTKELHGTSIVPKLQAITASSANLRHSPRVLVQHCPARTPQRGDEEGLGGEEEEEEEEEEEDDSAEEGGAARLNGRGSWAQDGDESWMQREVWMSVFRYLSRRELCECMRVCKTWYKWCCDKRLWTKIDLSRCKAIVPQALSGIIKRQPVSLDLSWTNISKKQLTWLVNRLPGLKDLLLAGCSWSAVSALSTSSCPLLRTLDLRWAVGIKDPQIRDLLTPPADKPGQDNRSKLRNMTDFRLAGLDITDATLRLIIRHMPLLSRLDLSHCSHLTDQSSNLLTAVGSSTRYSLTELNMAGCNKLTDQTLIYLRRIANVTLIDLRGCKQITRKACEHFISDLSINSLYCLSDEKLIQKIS

BBOX1 = conditions: read-out: IC50 BBOX1; [2OG] 40 µM, enzyme 25 nM; ref SI 4 (main 75); cited from earlier work
ABH3 = conditions: U87-MG, U373-MG, HT-1080; western blot; ref SI 11; cited from earlier work
FTO = conditions: NOMO-1, U937, MA9.3ITD; dot blot and LC-MS/MS; ref SI 12; cited from earlier work
PHD1 = conditions: ref SI 6 (main 76); cited from earlier work
TET2CD = TET2CD (Homo sapiens, UniProt Q6N021)
KDM6B [3] = molecular target: T4, KDM6B (Homo sapiens, UniProt O15054); conditions: read-out: IC50 KDM6B; [2OG] 200 µM; ref SI 8 (main 64); cited from earlier work
T4 sequence (O15054 whole entry): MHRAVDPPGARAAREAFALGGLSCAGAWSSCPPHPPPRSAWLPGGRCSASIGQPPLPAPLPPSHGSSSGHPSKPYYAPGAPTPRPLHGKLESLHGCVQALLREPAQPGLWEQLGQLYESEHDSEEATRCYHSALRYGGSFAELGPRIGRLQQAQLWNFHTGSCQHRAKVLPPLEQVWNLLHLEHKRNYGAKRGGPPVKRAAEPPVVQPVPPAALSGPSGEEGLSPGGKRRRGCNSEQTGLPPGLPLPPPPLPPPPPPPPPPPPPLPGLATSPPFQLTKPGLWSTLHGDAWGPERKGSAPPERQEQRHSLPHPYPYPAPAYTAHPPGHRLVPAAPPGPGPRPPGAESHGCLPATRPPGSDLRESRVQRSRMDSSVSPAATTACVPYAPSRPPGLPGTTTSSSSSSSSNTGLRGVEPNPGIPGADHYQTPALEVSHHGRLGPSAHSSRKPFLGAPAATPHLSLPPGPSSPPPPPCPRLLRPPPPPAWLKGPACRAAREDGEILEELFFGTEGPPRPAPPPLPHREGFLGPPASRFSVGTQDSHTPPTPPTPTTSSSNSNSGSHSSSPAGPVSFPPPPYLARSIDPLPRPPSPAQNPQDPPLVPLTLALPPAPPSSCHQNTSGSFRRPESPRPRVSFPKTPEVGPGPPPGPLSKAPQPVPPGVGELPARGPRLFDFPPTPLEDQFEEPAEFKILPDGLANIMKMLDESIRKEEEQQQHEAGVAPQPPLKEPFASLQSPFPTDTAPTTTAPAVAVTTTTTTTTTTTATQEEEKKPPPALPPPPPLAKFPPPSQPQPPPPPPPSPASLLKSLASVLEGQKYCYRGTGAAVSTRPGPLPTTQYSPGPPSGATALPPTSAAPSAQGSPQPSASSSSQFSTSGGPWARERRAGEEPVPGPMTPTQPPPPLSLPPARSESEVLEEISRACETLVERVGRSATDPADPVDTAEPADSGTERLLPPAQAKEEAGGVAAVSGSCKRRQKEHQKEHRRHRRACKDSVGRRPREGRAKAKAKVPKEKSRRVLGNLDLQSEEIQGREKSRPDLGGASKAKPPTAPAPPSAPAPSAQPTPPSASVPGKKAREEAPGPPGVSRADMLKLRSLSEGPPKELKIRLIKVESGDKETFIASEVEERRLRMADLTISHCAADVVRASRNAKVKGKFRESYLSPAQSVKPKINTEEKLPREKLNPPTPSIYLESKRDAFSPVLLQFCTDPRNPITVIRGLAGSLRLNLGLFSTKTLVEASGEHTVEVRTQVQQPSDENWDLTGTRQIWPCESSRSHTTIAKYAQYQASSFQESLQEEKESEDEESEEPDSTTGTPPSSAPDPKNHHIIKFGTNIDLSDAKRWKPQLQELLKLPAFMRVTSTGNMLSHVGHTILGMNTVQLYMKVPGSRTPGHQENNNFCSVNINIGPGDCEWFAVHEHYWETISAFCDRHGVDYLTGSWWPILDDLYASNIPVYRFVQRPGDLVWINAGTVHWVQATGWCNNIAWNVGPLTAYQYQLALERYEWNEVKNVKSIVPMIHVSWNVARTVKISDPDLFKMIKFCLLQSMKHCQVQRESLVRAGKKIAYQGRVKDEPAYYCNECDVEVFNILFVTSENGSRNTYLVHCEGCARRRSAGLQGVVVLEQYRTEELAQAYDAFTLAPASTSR

KDM6A [4] = molecular target: T2, KDM6A; conditions: read-out: Ki (calculated) KDM6A; Cheng-Prussoff from reported IC50; ref SI 8
KDM5B [5] = conditions: cited from earlier work
KDM6B [6] = molecular target: T4, KDM6B; conditions: read-out: Ki (calculated) KDM6B; Cheng-Prussoff from reported IC50; ref SI 8
KDM5B [7] = conditions: read-out: IC50 KDM5B (14CO2 radioactive); [2OG] 40 µM; ref SI 8 (main 64); cited from earlier work
KDM4B [8] = molecular target: T1, KDM4B; assay: biochemical
FIH = conditions: read-out: IC50 FIH; [2OG] 100 µM, enzyme 1,000 nM; ref SI 4 (main 75); cited from earlier work
TET1CD [9] = molecular target: T5, TET1CD (Homo sapiens, UniProt Q8NFU7)
T5 sequence (Q8NFU7 1418-2136): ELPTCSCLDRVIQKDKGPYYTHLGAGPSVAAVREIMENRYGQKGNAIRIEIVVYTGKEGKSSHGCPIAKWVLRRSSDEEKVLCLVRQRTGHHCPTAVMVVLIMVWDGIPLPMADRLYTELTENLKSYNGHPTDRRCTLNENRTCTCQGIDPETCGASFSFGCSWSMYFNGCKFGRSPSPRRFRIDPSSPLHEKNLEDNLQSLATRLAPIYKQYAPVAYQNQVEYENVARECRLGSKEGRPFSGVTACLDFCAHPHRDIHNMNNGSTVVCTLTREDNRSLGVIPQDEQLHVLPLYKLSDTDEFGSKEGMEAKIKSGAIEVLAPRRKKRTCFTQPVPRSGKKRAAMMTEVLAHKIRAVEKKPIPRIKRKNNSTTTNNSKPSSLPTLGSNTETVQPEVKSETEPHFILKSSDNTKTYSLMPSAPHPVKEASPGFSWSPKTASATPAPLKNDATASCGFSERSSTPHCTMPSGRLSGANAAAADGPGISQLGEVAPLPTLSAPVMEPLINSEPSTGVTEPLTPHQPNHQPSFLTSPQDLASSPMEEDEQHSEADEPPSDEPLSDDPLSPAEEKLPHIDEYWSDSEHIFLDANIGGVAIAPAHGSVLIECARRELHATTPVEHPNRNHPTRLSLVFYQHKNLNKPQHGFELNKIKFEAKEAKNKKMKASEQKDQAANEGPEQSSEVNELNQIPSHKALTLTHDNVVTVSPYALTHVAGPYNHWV

TET1CD [10] = molecular target: T5, TET1CD; assay: cell-based; conditions: U2OS, read-out: % inhibition of TET1 in cells at […]
in vitro = conditions: human, Cellular pCC50 TET1CD, nuclear count by DAPI staining, 24 h; named compound dosed

In the case of `O=C(O)CC[C@@H](O)C(=O)O` [R-2HG, (2R)-hydroxyglutarate], the IC50 (KDM4B [1]) is listed as 150 µM, the “cellular inhibition PHD1–3 (in words)” value (PHD1, PHD2, PHD3) is listed as “Putative inhibition of PHD” and the Ki (PHD3) is listed as 90 µM. The IC50 (KDM6A [2]) was 180 µM, the Ki (KDM2A) was 74 µM and the IC50 (BBOX1) was 13200 µM. For the same molecule, the “cellular inhibition ABH3 (in words)” value (ABH3) was “Inhibition”, the “cellular inhibition FTO (in words)” value (FTO) was “Inhibition” and the Ki (PHD1) was 1150 µM. The “α-value TET2CD” value (TET2CD) was 11 ± 13, the IC50 (KDM6B [3]) was 350 µM and the Ki (KDM6A [4]) was 43 µM. The “cellular inhibition KDM5B at 2.0 mM (in words)” value (KDM5B [5]) was “No inhibition”, the Ki (KDM6B [6]) was 89 µM and the IC50 (KDM5B [7]) was […]. For the same molecule, the Ki (KDM4B [8]) was 53 µM.

For `O=C(O)CC[C@H](O)C(=O)O` [S-2HG, S-2-hydroxyglutarate], the IC50 (KDM4B [1]) is listed as 450 µM, the IC50 (KDM6A [2]) is listed as 180 µM and the IC50 (BBOX1) is listed as 142 µM. For the same molecule, the IC50 (KDM6B [3]) was 750 µM, the Ki (KDM6A [4]) was 43 µM and the “cellular inhibition KDM5B at 1.0 mM (in words)” value (KDM5B [5]; U2OS, 1.0 mM, immunofluorescence, ref SI 10) was “No inhibition”. For the same molecule, the Ki (KDM6B [6]) was 191 µM, the IC50 (FIH) was 189 µM and the Ki (KDM4B [8]) was 158 µM.

In the case of `CCCCCCCCOC(=O)[C@H](O)CCC(=O)O` [octyl-(R)-2HG, R-Octyl-2-hydroxyglutarate], the EC50 (TET1CD [9]) is reported as about 1500 µM, the “Cellular pEC50 TET1CD” value (TET1CD [9]; U2OS, 24 h with Dox induction, 5hmC IF, named compound dosed, replicates in parentheses) is reported as 2.83 ± 0.09 (3) and the inhibition at 1500 µM (TET1CD [10]) is reported as about 50%. The CC50 at 24 h (in vitro) was over 2000 µM.
